Data from patent US20030129672A1, “Method for identifying metalloenzyme inhibitors” (priority 2001, published 2003).
Like-named read-outs stand apart in the source and are kept apart here.

How the values were obtained:
Assay type in all cases: biochemical
MMP-13CD = MMP-13CD (Homo sapiens, UniProt P45452); test: Fluorigenic peptide-1 substrate based assay with and without acetohydroxamic acid, MMP-13CD; conditions: for IC50: MMP-13CD, FP1 substrate
Description: 50 mM HEPES buffer (pH 7.0)
2% DMSO (with or without inhibitor test compound)
Alternatively, an endpoint read can also be used to determine reaction velocity provided the initial fluorescence of the solution, as recorded before addition of enzyme, is subtracted from the final fluorescence of the reaction mixture. […] This determination was done for experiments done in the presence, and experiments done in the absence, of acetohydroxamic acid. Data were fit to the equation: […]

MMP-2 [1] = biological target: T1, MMP-2 (Homo sapiens, UniProt P08253); test: Fluorigenic peptide-1 substrate based assay with and without acetohydroxamic acid, MMP-2; conditions: MMP 2FL, FP1 substrate
T1 sequence (P08253 110-660): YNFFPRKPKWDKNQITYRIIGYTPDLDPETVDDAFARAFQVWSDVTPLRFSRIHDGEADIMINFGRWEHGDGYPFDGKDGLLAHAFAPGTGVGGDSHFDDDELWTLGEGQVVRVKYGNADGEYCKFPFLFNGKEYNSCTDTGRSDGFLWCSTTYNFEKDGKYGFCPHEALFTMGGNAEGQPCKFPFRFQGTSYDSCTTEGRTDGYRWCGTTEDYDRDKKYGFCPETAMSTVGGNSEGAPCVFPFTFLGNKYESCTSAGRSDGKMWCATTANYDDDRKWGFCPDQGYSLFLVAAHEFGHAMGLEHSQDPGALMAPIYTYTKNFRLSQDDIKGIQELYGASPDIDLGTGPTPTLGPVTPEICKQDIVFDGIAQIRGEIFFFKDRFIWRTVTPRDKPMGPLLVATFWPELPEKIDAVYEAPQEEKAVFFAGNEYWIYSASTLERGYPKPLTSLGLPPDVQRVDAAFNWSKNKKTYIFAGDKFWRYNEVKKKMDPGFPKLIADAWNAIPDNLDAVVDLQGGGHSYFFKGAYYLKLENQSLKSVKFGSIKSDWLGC

MMP-9 = MMP-9 (Homo sapiens, UniProt P14780); test: Fluorigenic peptide-1 substrate based assay with and without acetohydroxamic acid, MMP-9; conditions: MMP 9FL, FP1 substrate
Sequence of MMP-9 (P14780 94-707, species assumed): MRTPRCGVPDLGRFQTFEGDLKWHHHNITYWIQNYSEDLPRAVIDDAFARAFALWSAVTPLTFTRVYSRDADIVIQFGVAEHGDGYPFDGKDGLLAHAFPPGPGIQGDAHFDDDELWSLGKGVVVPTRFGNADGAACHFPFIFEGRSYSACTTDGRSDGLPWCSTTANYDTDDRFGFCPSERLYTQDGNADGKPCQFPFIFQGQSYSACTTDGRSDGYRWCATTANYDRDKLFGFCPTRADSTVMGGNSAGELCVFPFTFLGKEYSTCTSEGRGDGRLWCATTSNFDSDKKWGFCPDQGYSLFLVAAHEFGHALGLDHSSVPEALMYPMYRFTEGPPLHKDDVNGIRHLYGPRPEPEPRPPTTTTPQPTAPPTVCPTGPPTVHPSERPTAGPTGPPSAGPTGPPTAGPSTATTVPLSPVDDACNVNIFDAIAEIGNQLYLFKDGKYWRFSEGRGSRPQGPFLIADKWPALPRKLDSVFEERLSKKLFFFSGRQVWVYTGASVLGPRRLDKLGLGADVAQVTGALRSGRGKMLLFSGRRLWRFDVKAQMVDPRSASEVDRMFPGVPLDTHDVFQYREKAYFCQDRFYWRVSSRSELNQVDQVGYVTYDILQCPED

MMP-2 [2] = biological target: T1, MMP-2; test: Steady-state kinetics of the mechanism of inhibition of MMP-2 (FIG. 1); conditions: 6 concentrations from 0 nanomolar to 600 nanomolar, 1/V0 versus 1/[S]
Description: FIG. 1 is a graph that plots 1 over the initial velocity VO, which is the initial rate of product formation in a steady state kinetics assay, on the Y-axis versus 1 over concentration of substrate [S] used in the assay on the X-axis for inhibition of MMP-2 with N-[(3-phenylisoxazol-5-ylmethyl)-aminothiocarbonyl]-benzamide at 6 concentrations of from 0 nanomolar to 600 nanomolar.
In FIG. 1, 1 over the initial velocity VO, which is the initial rate of product formation in a steady state kinetics assay, is plotted on the Y-axis versus 1 over concentration of substrate [S] used in the assay on the X-axis for inhibition of MMP-2 with N-[(3-phenylisoxazol-5-ylmethyl)-aminothiocarbonyl]-benzamide at 6 concentrations of from 0 nanomolar to 600 nanomolar.

[3] = 0 mM acetohydroxamic acid, read-out: Without AcNHOH IC50
[4] = 15 mM acetohydroxamic acid (1 Kd), read-out: With AcNHOH IC50
[5] = about 1 Kd of acetohydroxamic acid, read-out: With AcNHOH IC50
[6] = no acetohydroxamic acid, read-out: Without AcNHOH IC50

Row | IC50 (MMP-13CD; [3]) [µM] | IC50 (MMP-13CD; [4]) [µM] | further results | Structure (SMILES)
1 | 34 | 16 | – | Nc1ccc(-c2ccc(S(N)(=O)=O)cc2)cc1 [Entry 1]
2 | 84 | 3.1 | – | NS(=O)(=O)c1ccc(-c2ccc([N+](=O)O)cc2)cc1 [Entry 2]
3 | 126 | 71 | – | COc1ccc(NC(=O)Nc2ccc3nc(C)cc(N)c3c2)cc1 [Entry 3]
4 | 64 | 4.7 | – | Cc1cc(O)nc(SCc2ccc(Cl)cc2)n1 [Entry 4]
5 | 9.5 | 11 | – | Cc1c(-c2ccc(-n3ccnc3)cc2)[nH][nH]c1=O [Entry 5]
6 | 17 | 14 | – | CCOC(=O)/C=C/c1ccc(-n2ccnc2)cc1 [Entry 6]
7 | 27 | 11 | – | COc1ccc(C(=O)NCc2cccnc2)cc1C(=O)NCc1cccnc1 [Entry 7]
8 | – | – | IC50 (MMP-2 [1]; [5]): 0.09 µM; IC50 (MMP-2 [1]; [6]): 0.9 µM; IC50 (MMP-9; [5]): 1.2 µM; IC50 (MMP-9; [6]): 3.1 µM; Mechanism of inhibition of MMP-2 by steady-state kinetics (MMP-2 [2]): uncompetitive inhibitor | O=C(NC(=S)NCc1cc(-c2ccccc2)no1)c1ccccc1 [N-[(3-phenylisoxazol-5-ylmethyl)-aminothiocarbonyl]-benzamide]
9 | – | – | Kd (MMP-13CD): 15000 µM | CC(=O)NO [acetohydroxamic acid, reference compound]
